According to patent US10525055B2, “Opioid receptor antagonist prodrugs” (Nirsum Laboratories, Inc., priority 2017, dated 2020):

What was measured:
[1] = Solubility determination in oil (cottonseed oil, sesame oil)
Experimental: A known amount of test substance (˜40 mg) was weighed into the vial, 100 μL of oil was added and heated to 60° C. and then system was slurried to reach equilibrium. […] Extra oil was added into the vial once compound precipitated out and then the system was re-equilibrated at 1000 rpm at room temperature (25° C.). Final concentration was determined by HPLC method as described below in Table 6a and 6b.

[2] = Polymorph screening of solid state drug substances; conditions: for XRPD results (Dried): stirred 50 °C 72 hours, solids dried; for Visual observation 50° C. / Visual observation RT: target conc. 100 mg/ml
[3] = Plasma stability assay, rat plasma; type: in vitro ADME; conditions: 37° C., 10 μM
Experimental: Plasma stability determination of the test compounds in rat, dog, cynomolgus monkey and human plasma is performed using HPLC-MS. For rat, incubations are carried out in 96-well polypropylene plates in 5 aliquots of 70 μL each (one for each time point). […] Five time points are analyzed (0, 15, 120, 480 and 1440 min). For dog, monkey and human, test compounds (2 μM, final solvent concentration 1%) were also incubated at 37° C. and analyzed at five time points (0, 10, 30, 60 and 120 min). All incubations are performed in duplicates. The samples are analyzed by HPLC-MS. The percentage of parent compound remaining after incubation in plasma is determined.

[4] = heating temp. 60 °C, obs. temp. 25 °C

C=C1CC[C@@]2(O)C3Cc4ccc(OC(=O)CCCCCCCCCCCCCCCCCCC)c5c4[C@@]2(CCN3CC2CC2)[C@H]1O5 [Compound 16, (4aS,7aS,12bS)-3-(cyclopropylmethyl)-4a-hydroxy-7-methylene-2,3,4,4a,5,6,7,7a-octahydro-1H-4,12-methanobenzofuro[3,2-e]isoquinolin-9-yl icosanoate]
Approximate Solubility (mg/mL) in Excipient: Sesame oil ([1]; heating temp. 60 °C, obs. temp. 40 °C): 202 to 404 mg/mL
XRPD results (Dried) ([2]; Acetone): Pattern A
Visual observation 50° C. ([2]; Acetone): Clear
Visual observation RT ([2]; Acetone): Slurry
XRPD results (Dried) ([2]; EtOAc): Pattern A
Visual observation 50° C. ([2]; EtOAc): Clear
Visual observation RT ([2]; EtOAc): Slurry
XRPD results (Dried) ([2]; Heptane): Pattern A
Visual observation 50° C. ([2]; Heptane): Slurry
Visual observation RT ([2]; Heptane): Slurry
XRPD results (Dried) ([2]; Isopropanol): Pattern A
Visual observation 50° C. ([2]; Isopropanol): Slurry
Visual observation RT ([2]; Isopropanol): Slurry
XRPD results (Dried) ([2]; MTBE): Pattern A
Visual observation 50° C. ([2]; MTBE): Clear
Visual observation RT ([2]; MTBE): Clear
Comment: stability of initial crystal form (pattern A) ([2]; polymorph screen over Heptane, MTBE, Isopropanol, EtOAc, Acetone): likely stable form. Same crystal form

C=C1CC[C@@]2(O)C3Cc4ccc(OC(=O)OCCCCCCCC)c5c4[C@@]2(CCN3CC2CC2)[C@H]1O5 [Compound 17, (4aS,7aS,12bS)-3-(cyclopropylmethyl)-4a-hydroxy-7-methylene-2,3,4,4a,5,6,7,7a-octahydro-1H-4,12-methanobenzofuro[3,2-e]isoquinolin-9-yl octyl carbonate]
% remaining at time point in minutes, 0 min [3]: 100%
% remaining at time point in minutes, 15 min [3]: 0%
% remaining at time point in minutes, 120 min [3]: 0%
% remaining at time point in minutes, 480 min [3]: 0%
% remaining at time point in minutes, 1440 min [3]: 0%
Approximate Solubility (mg/mL) in Excipient: Cottonseed oil [1, 4]: >408 mg/mL

C=C1CC[C@@]2(O)C3Cc4ccc(OC(=O)CCCCCCC/C=C\CCCCCCCC)c5c4[C@@]2(CCN3CC2CC2)[C@H]1O5 [Compound 36, (4aS,7aS,12bS)-3-(cyclopropylmethyl)-4a-hydroxy-7-methylene-2,3,4,4a,5,6,7,7a-octahydro-1H-4,12-methanobenzofuro[3,2-e]isoquinolin-9-yl oleate]
% remaining at time point in minutes, 0 min [3]: 100%
% remaining at time point in minutes, 15 min [3]: 74.4%
% remaining at time point in minutes, 120 min [3]: 66.3%
% remaining at time point in minutes, 480 min [3]: 39.8%
% remaining at time point in minutes, 1440 min [3]: 19.1%
Approximate Solubility (mg/mL) in Excipient: Cottonseed oil [1, 4]: >407 mg/mL
Approximate Solubility (mg/mL) in Excipient: Sesame oil ([1]; heating temp. 40 °C, obs. temp. 40 °C): >411.6 mg/mL
Approximate Solubility (mg/mL) in Excipient: Sesame oil [1, 4]: >408 mg/mL

CCCCCCCCCCCCCCCC(=O)OCOc1ccc2c3c1O[C@H]1C(=O)CC[C@@]4(O)C(C2)N(CC2CC2)CC[C@]314 [Compound 49, (((4aS,7aR,12bS)-3-(cyclopropylmethyl)-4a-hydroxy-7-oxo-2,3,4,4a,5,6,7,7a-octahydro-1H-4,12-methanobenzofuro[3,2-e]isoquinolin-9-yl)oxy)methyl hexadecanoate]
Approximate Solubility (mg/mL) in Excipient: Sesame oil [1, 4]: <51 mg/mL

CCCCCCCCCCCCCCCCCCCC(=O)Oc1ccc2c3c1O[C@H]1C(=O)CC[C@@]4(O)C(C2)N(CC2CC2)CC[C@]314 [Compound 50, (4aS,7aR,12bS)-3-(cyclopropylmethyl)-4a-hydroxy-7-oxo-2,3,4,4a,5,6,7,7a-octahydro-1H-4,12-methanobenzofuro[3,2-e]isoquinolin-9-yl icosanoate]
% remaining at time point in minutes, 0 min [3]: 100%
% remaining at time point in minutes, 15 min [3]: 114.5%
% remaining at time point in minutes, 120 min [3]: 102.7%
% remaining at time point in minutes, 480 min [3]: 83.3%
% remaining at time point in minutes, 1440 min [3]: 73.9%
Approximate Solubility (mg/mL) in Excipient: Sesame oil [1, 4]: <52 mg/mL
